From publication doi:10.1101/2024.03.08.584095v1, “LPOR and the membranes – evolutionary pathway towards prolamellar body formation” (biorxiv, 2024)

Legend:
SynPOR = biological target: T1, SynPOR (Synechocystis sp. PCC 6803, UniProt Q59987); experiment: […] K fluorescence emission shift of Pchlide; assay type: binding; settings: 5 µM Pchlide, 15 µM enzyme, 200 µM dinucleotide, no lipids, pH 7.1
T1 construct: gene por; recombinant, E. coli BL21(DE3)pRIL, cloned in a previous study; tag not described here

AtPORB = biological target: T2, AtPORB (Arabidopsis thaliana, UniProt P21218); experiment: […] K fluorescence emission shift of Pchlide; assay type: binding; settings: 5 µM Pchlide, 15 µM enzyme, 200 µM NADP+, 100 µM OPT lipids, pH 7.1; inactive complex
T2 construct: gene PORB; cloned in a previous study
T2 sequence (P21218 67-401): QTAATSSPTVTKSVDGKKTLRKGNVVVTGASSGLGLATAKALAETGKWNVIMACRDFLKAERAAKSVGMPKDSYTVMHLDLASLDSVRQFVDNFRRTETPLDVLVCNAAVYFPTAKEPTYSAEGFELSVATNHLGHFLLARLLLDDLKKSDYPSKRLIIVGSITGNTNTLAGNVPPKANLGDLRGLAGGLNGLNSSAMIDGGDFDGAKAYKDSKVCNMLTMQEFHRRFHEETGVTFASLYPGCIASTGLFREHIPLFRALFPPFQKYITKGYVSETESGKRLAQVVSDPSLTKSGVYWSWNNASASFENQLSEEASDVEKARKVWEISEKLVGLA

AtPORB_α10 = tested on: T3, AtPORB_α10; experiment: […] K fluorescence, Chlide/Pchlide ratio after […] s illumination, modified Michaelis-Menten fit; assay type: biochemical, Arabidopsis thaliana; settings: 5 µM Pchlide, 15 µM enzyme, no lipids, pH 7.1, room temperature; apparent analogue of Km
T3 construct: gene PORB; AtPORB with helix alpha10 of SynPOR; pET15b, E. coli

T1 sequence (Q59987 whole entry): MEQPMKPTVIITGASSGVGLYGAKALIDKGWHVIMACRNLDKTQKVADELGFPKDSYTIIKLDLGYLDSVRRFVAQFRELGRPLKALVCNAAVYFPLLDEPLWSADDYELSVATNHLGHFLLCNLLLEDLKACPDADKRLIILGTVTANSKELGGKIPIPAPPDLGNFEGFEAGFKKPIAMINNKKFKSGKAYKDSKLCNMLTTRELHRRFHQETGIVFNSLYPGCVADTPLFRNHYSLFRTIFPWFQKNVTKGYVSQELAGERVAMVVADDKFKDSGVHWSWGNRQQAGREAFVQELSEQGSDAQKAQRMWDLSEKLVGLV

Row | Structure (SMILES) | 77 K fluorescence emission shift of Pchlide (SynPOR) | 77 K fluorescence emission shift of Pchlide (AtPORB) | Km (AtPORB_α10)
1 | NC(=O)c1ccc[n+]([C@@H]2O[C@H](COP(=O)(O)OP(=O)(O)OC[C@H]3O[C@@H](n4cnc5c(N)ncnc54)[C@H](OP(=O)(O)O)[C@@H]3O)[C@@H](O)[C@H]2O)c1 [NADP+] | Introduction of NADP^+ into the lipid-free mixture induced further red shift | AtPORB:Pchlide can bind NADP^+ in the presence of OPT lipids | 
2 | NC(=O)C1=CN([C@@H]2O[C@H](COP(=O)(O)OP(=O)(O)OC[C@H]3O[C@@H](n4cnc5c(N)ncnc54)[C@H](OP(=O)(O)O)[C@@H]3O)[C@@H](O)[C@H]2O)C=CC1 [NADPH] |  |  | 22.6 ± 3.3 µM
